In ChEMBL document CHEMBL5058641, “Data for DCP probe TP-050” (2022):

What was measured:
[1] = target: 5-hydroxytryptamine receptor 1B (Homo sapiens, UniProt P28222); conditions: Compound concentration 10.0 uM
[2] = species on record: Rattus norvegicus; conditions: Compound concentration 10.0 uM

5-hydroxytryptamine receptor 1B, sequence (P28222 whole entry): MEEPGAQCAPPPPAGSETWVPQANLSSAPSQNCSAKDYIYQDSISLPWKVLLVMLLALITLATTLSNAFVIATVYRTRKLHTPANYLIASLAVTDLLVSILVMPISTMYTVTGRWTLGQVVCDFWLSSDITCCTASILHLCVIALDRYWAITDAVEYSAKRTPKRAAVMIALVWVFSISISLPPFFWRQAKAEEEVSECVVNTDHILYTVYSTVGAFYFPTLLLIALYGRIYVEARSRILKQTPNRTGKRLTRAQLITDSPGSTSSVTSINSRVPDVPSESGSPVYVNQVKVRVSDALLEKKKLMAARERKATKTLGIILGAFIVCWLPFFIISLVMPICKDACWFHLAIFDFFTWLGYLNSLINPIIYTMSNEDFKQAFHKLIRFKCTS

## Cc1cn([C@H](C)CC#N)c(=O)c2cc(Cn3nc(C(F)F)cc3Cl)nn12
[1]
  inhibition: 21.7%
[2]
  inhibition: 83.2%
